In US11229623B2 (GlaxoSmithKline Intellectual Property (No.2) Limited, priority 2016, dated 2022) one finds IC50 data, which are given here for 29 compounds.

T1 sequence (Q9HBA0 whole entry): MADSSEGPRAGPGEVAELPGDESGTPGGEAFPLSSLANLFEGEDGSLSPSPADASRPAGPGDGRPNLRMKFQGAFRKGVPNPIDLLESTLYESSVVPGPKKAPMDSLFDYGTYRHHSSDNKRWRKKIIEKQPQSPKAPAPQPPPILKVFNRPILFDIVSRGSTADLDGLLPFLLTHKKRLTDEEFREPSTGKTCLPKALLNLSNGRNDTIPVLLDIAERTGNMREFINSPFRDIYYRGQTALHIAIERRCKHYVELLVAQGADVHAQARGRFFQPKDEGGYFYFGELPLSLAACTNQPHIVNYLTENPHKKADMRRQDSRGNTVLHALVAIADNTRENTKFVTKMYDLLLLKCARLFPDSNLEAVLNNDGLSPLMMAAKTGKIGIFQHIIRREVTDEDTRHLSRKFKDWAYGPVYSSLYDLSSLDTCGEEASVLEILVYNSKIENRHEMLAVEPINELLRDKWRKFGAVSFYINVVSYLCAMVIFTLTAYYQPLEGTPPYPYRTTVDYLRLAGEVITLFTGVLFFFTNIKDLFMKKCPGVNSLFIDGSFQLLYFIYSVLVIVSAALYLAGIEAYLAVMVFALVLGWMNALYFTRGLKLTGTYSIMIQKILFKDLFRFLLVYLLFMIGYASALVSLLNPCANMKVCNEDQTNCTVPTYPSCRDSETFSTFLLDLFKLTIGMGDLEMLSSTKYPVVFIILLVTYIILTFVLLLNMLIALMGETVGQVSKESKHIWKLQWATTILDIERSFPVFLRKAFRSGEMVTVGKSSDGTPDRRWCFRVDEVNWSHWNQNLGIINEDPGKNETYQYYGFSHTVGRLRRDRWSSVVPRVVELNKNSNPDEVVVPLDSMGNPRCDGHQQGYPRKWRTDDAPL

This experiment concerns the target T1, human TRPV4 (Homo sapiens, UniProt Q9HBA0).
T1 construct: expressed in transfected cells; host or cells: BHK/AC9 cells transduced with BacMam virus
Briefly: FLIPR assay for hTRPV4 expressed in BHK cells: inhibition of Agonist Compound-induced calcium signal. In kind it is cell-based. As to conditions: hTRPV4 in BHK/AC9 cells, FLIPR calcium signal, agonist at EC80; reported as range class; read-out: IC50. Put shortly:
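Calcium influx through TRPV4 tracked by Fluo-4 fluorescence on FLIPR. Cells: BHK/AC9 transduced with BacMam-hTRPV4 at MOI 78, 24 h culture post-plating (15,000 cells/well). Dye loading: 2 μM Fluo-4 AM with 500 μM Brilliant Black quencher, 1-1.5 h, room temperature, dark.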
In the case of `Cc1ccc(S(=O)(=O)N2C[C@H](Oc3ccc(C#N)c(F)c3)[C@](O)(CO)C2)cc1F` [Example 118, 2-fluoro-4-(((3S,4R)-1-((3-fluoro-4-methylphenyl)sulfonyl)-4-hydroxy-4-(hydroxymethyl)pyrrolidin-3-yl)oxy)benzonitrile], the half-inhibitory concentration (IC50) was 10 to 100 nM. Take `N#Cc1ccc(O[C@H]2CN(S(=O)(=O)c3ccccc3I)C[C@@]2(O)CO)cc1F` [Example 119, 2-fluoro-4-(((3S,4R)-4-hydroxy-4-(hydroxymethyl)-1-((2-iodophenyl)sulfonyl)pyrrolidin-3-yl)oxy)benzonitrile]: the IC50 was 0.1 to 10 nM.

For `N#Cc1ccc(O[C@H]2CN(S(=O)(=O)c3ccc(Cl)cc3Br)C[C@@]2(O)CO)cc1F` [Example 120, 4-(((3S,4R)-1-((2-bromo-4-chlorophenyl)sulfonyl)-4-hydroxy-4-(hydroxymethyl)pyrrolidin-3-yl)oxy)-2-fluorobenzonitrile], the IC50 was 0.1 to 10 nM. As for `N#Cc1ccc(O[C@H]2CN(S(=O)(=O)c3ccc(Br)cc3C(F)(F)F)C[C@@]2(O)CO)cc1F` [Example 121, 4-(((3S,4R)-1-((4-bromo-2-(trifluoromethyl)phenyl)sulfonyl)-4-hydroxy-4-(hydroxymethyl)pyrrolidin-3-yl)oxy)-2-fluorobenzonitrile], the figure is 10 to 100 nM; as for `N#Cc1ccc(O[C@H]2CN(S(=O)(=O)c3cccnc3OC(F)F)C[C@@]2(O)CO)cc1F` [Example 122, 4-(((3S,4R)-1-((2-(difluoromethoxy)pyridin-3-yl)sulfonyl)-4-hydroxy-4-(hydroxymethyl)pyrrolidin-3-yl)oxy)-2-fluorobenzonitrile], 0.1 to 10 nM; as for `Cn1ncc(Br)c1S(=O)(=O)N1C[C@H](Oc2ccc(C#N)c(F)c2)[C@](O)(CO)C1` [Example 123, 4-(((3S,4R)-1-((4-bromo-1-methyl-1H-pyrazol-5-yl)sulfonyl)-4-hydroxy-4-(hydroxymethyl)pyrrolidin-3-yl)oxy)-2-fluorobenzonitrile], 10 to 100 nM. Turning to `Cc1nn(C)c(S(=O)(=O)N2C[C@H](Oc3ccc(C#N)c(F)c3)[C@](O)(CO)C2)c1Cl` [Example 124, 4-(((3S,4R)-1-((4-chloro-1,3-dimethyl-1H-pyrazol-5-yl)sulfonyl)-4-hydroxy-4-(hydroxymethyl)pyrrolidin-3-yl)oxy)-2-fluorobenzonitrile], the IC50 was 100 to 1000 nM. Consider `O=S(=O)(c1ccc(C(F)(F)F)cc1F)N1C[C@H](Oc2ccc3nonc3c2)[C@](O)(CO)C1` [Example 125, (3R,4S)-4-(benzo[c][1,2,5]oxadiazol-5-yloxy)-1-((2-fluoro-4-(trifluoromethyl)phenyl)sulfonyl)-3-(hydroxymethyl)pyrrolidin-3-ol], for which the IC50 lay in the range of 10 to 100 nM. With `N#Cc1ccc(O[C@H]2CN(S(=O)(=O)c3ccc(OC(F)F)nc3)C[C@@]2(O)CO)cc1F` [Example 126, 4-(((3S,4R)-1-((6-(difluoromethoxy)pyridin-3-yl)sulfonyl)-4-hydroxy-4-(hydroxymethyl)pyrrolidin-3-yl)oxy)-2-fluorobenzonitrile], the IC50 lay within 100 to 1000 nM.

For `N#Cc1ccc(O[C@H]2CN(S(=O)(=O)c3ccc(OC(F)(F)F)cn3)C[C@@]2(O)CO)cc1F` [Example 127, 2-fluoro-4-(((3S,4R)-4-hydroxy-4-(hydroxymethyl)-1-((5-(trifluoromethoxy)pyridin-2-yl)sulfonyl)pyrrolidin-3-yl)oxy)benzonitrile], the 50% inhibitory concentration (IC50) lay within 100 to 1000 nM.

`N#Cc1ccc(O[C@H]2CN(S(=O)(=O)c3cnc(C(F)(F)F)nc3)C[C@@]2(O)CO)cc1F` [Example 128, 2-fluoro-4-(((3S,4R)-4-hydroxy-4-(hydroxymethyl)-1-((2-(trifluoromethyl)pyrimidin-5-yl)sulfonyl)pyrrolidin-3-yl)oxy)benzonitrile]: the IC50 lay in the range of 100 to 1000 nM.

With `N#Cc1ccc(O[C@H]2CN(S(=O)(=O)c3ccc(Cl)c(OC(F)(F)F)c3)C[C@@]2(O)CO)cc1F` [Example 129, 4-(((3S,4R)-1-((4-chloro-3-(trifluoromethoxy)phenyl)sulfonyl)-4-hydroxy-4-(hydroxymethyl)pyrrolidin-3-yl)oxy)-2-fluorobenzonitrile], the 50% inhibitory concentration (IC50) is 10 to 100 nM. `N#Cc1ccc(O[C@H]2CN(S(=O)(=O)c3ccc(I)cn3)C[C@@]2(O)CO)cc1F` [Example 130, 2-fluoro-4-(((3S,4R)-4-hydroxy-4-(hydroxymethyl)-1-((5-iodopyridin-2-yl)sulfonyl)pyrrolidin-3-yl)oxy)benzonitrile]: the IC50 lay in the range of 10 to 100 nM. For `Cc1nc(C#N)ccc1S(=O)(=O)N1C[C@H](Oc2ccc(C#N)c(F)c2)[C@](O)(CO)C1` [Example 131, 5-(((3R,4S)-4-(4-cyano-3-fluorophenoxy)-3-hydroxy-3-(hydroxymethyl)pyrrolidin-1-yl)sulfonyl)-6-methylpicolinonitrile], the IC50 was in the range of 10 to 100 nM.

For the compound `N#Cc1ccc(O[C@H]2CN(S(=O)(=O)c3cccc(OC(F)(F)F)n3)C[C@@]2(O)CO)cc1F` [Example 132, 2-fluoro-4-(((3S,4R)-4-hydroxy-4-(hydroxymethyl)-1-((6-(trifluoromethoxy)pyridin-2-yl)sulfonyl)pyrrolidin-3-yl)oxy)benzonitrile], the IC50 fell in the range of 10 to 100 nM. For the compound `N#Cc1ccc(O[C@H]2CN(S(=O)(=O)c3ccc(OCC(F)(F)F)nn3)C[C@@]2(O)CO)cc1F` [Example 133, 2-fluoro-4-(((3S,4R)-4-hydroxy-4-(hydroxymethyl)-1-((6-(2,2,2-trifluoroethoxy)pyridazin-3-yl)sulfonyl)pyrrolidin-3-yl)oxy)benzonitrile], the IC50 fell in the range of 10 to 100 nM.

For `N#Cc1ccc(O[C@H]2CN(S(=O)(=O)c3cccc(OC(F)F)n3)C[C@@]2(O)CO)cc1F` [Example 134, 4-(((3S,4R)-1-((6-(difluoromethoxy)pyridin-2-yl)sulfonyl)-4-hydroxy-4-(hydroxymethyl)pyrrolidin-3-yl)oxy)-2-fluorobenzonitrile], the IC50 lay within 10 to 100 nM. On to `N#Cc1ccc(O[C@H]2CN(S(=O)(=O)c3ccc(C(F)(F)F)cc3C#N)C[C@]2(O)CO)cc1F` [Example 135, 4-(((3S,4S)-1-((2-cyano-4-(trifluoromethyl)phenyl)sulfonyl)-4-hydroxy-4-(hydroxymethyl)pyrrolidin-3-yl)oxy)-2-fluorobenzonitrile], for which the IC50 fell in the range of 0.1 to 10 nM. With `N#Cc1ccc(O[C@H]2CN(S(=O)(=O)c3ccc(Cl)cn3)C[C@]2(O)CO)cc1F` [Example 136, 4-(((3S,4S)-1-((5-chloropyridin-2-yl)sulfonyl)-4-hydroxy-4-(hydroxymethyl)pyrrolidin-3-yl)oxy)-2-fluorobenzonitrile], the IC50 fell in the range of 100 to 1000 nM. Turning to `N#Cc1ccc(O[C@H]2CN(S(=O)(=O)c3ccccc3C#N)C[C@]2(O)CO)cc1F` [Example 137, 4-(((3S,4S)-1-((2-cyanophenyl)sulfonyl)-4-hydroxy-4-(hydroxymethyl)pyrrolidin-3-yl)oxy)-2-fluorobenzonitrile], the IC50 fell in the range of 10 to 100 nM. As to `N#Cc1ccc(O[C@H]2CN(S(=O)(=O)c3ccc(F)cc3C#N)C[C@]2(O)CO)cc1F` [Example 138, 4-(((3S,4S)-1-((2-cyano-4-fluorophenyl)sulfonyl)-4-hydroxy-4-(hydroxymethyl)pyrrolidin-3-yl)oxy)-2-fluorobenzonitrile], the IC50 fell in the range of 0.1 to 10 nM.

In the case of `N#Cc1ccc(O[C@H]2CN(S(=O)(=O)c3ccc(Cl)cc3C#N)C[C@]2(O)CO)cc1F` [Example 139, 4-(((3S,4S)-1-((4-chloro-2-cyanophenyl)sulfonyl)-4-hydroxy-4-(hydroxymethyl)pyrrolidin-3-yl)oxy)-2-fluorobenzonitrile], the half-inhibitory concentration (IC50) lay in the range of 0.1 to 10 nM. For `N#Cc1ccc(O[C@H]2CN(S(=O)(=O)c3cccnc3C#N)C[C@]2(O)CO)cc1F` [Example 140, 3-(((3S,4S)-4-(4-cyano-3-fluorophenoxy)-3-hydroxy-3-(hydroxymethyl)pyrrolidin-1-yl)sulfonyl)picolinonitrile] the value was 10 to 100 nM. For `N#Cc1ccc(S(=O)(=O)N2C[C@H](Oc3ccc(C#N)c(F)c3)[C@@](O)(CO)C2)c(Cl)c1` [Example 141, 4-(((3S,4S)-1-((2-chloro-4-cyanophenyl)sulfonyl)-4-hydroxy-4-(hydroxymethyl)pyrrolidin-3-yl)oxy)-2-fluorobenzonitrile] the value was 10 to 100 nM; for `N#Cc1ccc(O[C@H]2CN(S(=O)(=O)c3ccc(Cl)cc3Cl)C[C@]2(O)CO)cc1F` [Example 142, 4-(((3S,4S)-1-((2,4-dichlorophenyl)sulfonyl)-4-hydroxy-4-(hydroxymethyl)pyrrolidin-3-yl)oxy)-2-fluorobenzonitrile], 10 to 100 nM. For `N#Cc1ccc(O[C@H]2CN(S(=O)(=O)c3ccc(Br)cc3C#N)C[C@]2(O)CO)cc1F` [Example 143, 4-(((3S,4S)-1-((4-bromo-2-cyanophenyl)sulfonyl)-4-hydroxy-4-(hydroxymethyl)pyrrolidin-3-yl)oxy)-2-fluorobenzonitrile], the IC50 lay within 0.1 to 10 nM. On to `N#Cc1ccc(O[C@H]2CN(S(=O)(=O)c3ccc(F)cc3Br)C[C@]2(O)CO)cc1F` [Example 144, 4-(((3S,4S)-1-((2-bromo-4-fluorophenyl)sulfonyl)-4-hydroxy-4-(hydroxymethyl)pyrrolidin-3-yl)oxy)-2-fluorobenzonitrile], for which the half-inhibitory concentration (IC50) fell in the range of 10 to 100 nM. For `COc1ccc(S(=O)(=O)N2C[C@H](Oc3ccc(C#N)c(F)c3)[C@@](O)(CO)C2)c(C#N)c1` [Example 145, 4-(((3S,4S)-1-((2-cyano-4-methoxyphenyl)sulfonyl)-4-hydroxy-4-(hydroxymethyl)pyrrolidin-3-yl)oxy)-2-fluorobenzonitrile], the half-inhibitory concentration (IC50) was 10 to 100 nM. In the case of `N#Cc1cc(C(F)(F)F)ccc1S(=O)(=O)N1C[C@H](Oc2ccc(Cl)cc2)[C@@](O)(CO)C1` [Example 146, 2-(((3S,4S)-4-(4-chlorophenoxy)-3-hydroxy-3-(hydroxymethyl)pyrrolidin-1-yl)sulfonyl)-5-(trifluoromethyl)benzonitrile], the IC50 was in the range of 10 to 100 nM.
